From US20240133870A1, “COMBINED TREATMENT FOR CANCER” (Yeda Research and Development Co. Ltd., priority 2021, published 2024)

How the values were obtained:
Format in all cases: cell-based, human
H1975 xenografts = assay: EVOC viability; settings: afatinib 3-4 μM
Protocol: Vehicle—DMSO, FGFRi—AZD4547 2-4 μM, INSRi—linsitinib 2 μM, METi—crizotinib 2-4 μM, EGFRi—afatinib 3-4 μM. Each black dot in a given treatment condition represents a different tumor. P-values were calculated by two-sided t-test. ** P<0.01, * P<0.05. Error bars represent standard error. […] Viability percentage is given per treatment combination. Scale bar represents 50 μm. […] Error bars represent standard error. […] EGFRi—gefitinib 1.6 μM, FGFRi—AZD4547 0.2 μM. The percentage of viable cancer cells was morphologically assessed on H&E stained sections by a pathologist as the ratio between viable cancer cell area and total cancer area (viable cancer cells plus necrotic cancer cells). […] Viability score was calculated based on the entire field of view. […]
Immunohistochemistry of EVOC tissues: To assess response therapy, 4 μm FFPE tissue slices were stained with H&E, or with specific antibodies: anti-pERK (Cell Signaling, #4370) followed by HRP conjugated secondary antibody (anti-Rabbit HRP, ZUC032, ZytoChem) and DAB staining (DAB substrate kit, DAB057, ZytoChem). […] All slides were scanned using the Pannoramic SCAN II (3[sequence]) and analyzed by a pathologist. The percentage of viable cancer cells was morphologically assessed on H&E stained sections by a pathologist as the ratio between viable cancer cell area and total cancer area (viable cancer cells plus necrotic cancer cells).

[1] = test system: HT-29 orthotopic xenograft colorectal tumors; assay: EVOC of orthotopic colon tumors, pERK and H&E/BrDu; settings: lapatinib 4 μM combined with BRAFi (vemurafenib 4 μM)
Excerpt: 500-700 μmm^3 tumors were resected, sliced, and cultured ex-vivo. Following 4 days of drug treatment, slices were fixed and embedded in paraffin blocks. FFPE slices were stained by H&E, and the percentage of viable cancer cells was morphologically assessed on H&E stained sections by a pathologist as the ratio between viable cancer cell area and total cancer area (viable cancer cells plus necrotic cancer cells). […] Each black dot in a given treatment condition represents a different tumor. P-values were calculated by two-sided t-test. *** P<0.001 ** P<0.01. Error bars represent standard error. […] Names of the six secreted factors with the highest rScore are shown. Factors related to TNF pathways are marked in gray. Results represent the average of at least two experiments. […] Cohort size pre-treatment: 5-6, P-values of the difference on the last day of experiment were calculated by one-sided Mann-Whitney test. * P<0.05. […] Viability percentage was calculated based on the entire field of view per treatment combination. […] FFPE slices were stained by pERK and pERK activity was assessed by a pathologist. […]
For the ex-vivo experiments EVOCs from immunocompromised mice bearing human tumors were generated, as further described hereinbelow. For the in-vivo validation experiments, mice bearing subcutaneous tumors were used; and response was measured by evaluating tumor volume. […]

[2] = test system: BRAF (V600E) melanoma cell lines; assay: High-throughput secretome screen of GFP-labeled cells (rScore, bScore, ranks); settings: G361 and SK-MEL-5; PLX4720 2 μM, PD184352 1 μM, EMAPII 50 ng/ml
Protocol: Cell lines—All cell lines (Table 1 hereinbelow) were cultured in DMEM supplemented with 100 units/ml Penicillin and Streptomycin, 2 μmM Glutamine, 1 μmM Pyruvate and 10% FCS, and maintained in a humidified incubator at 37° C. and 5% CO2. Cells were routinely tested for Mycoplasma contamination by PCR. To generate stable cell lines constitutively expressing GFP, cells were infected with lentivirus bearing plasmid pLEX_TRC206 and sorted by FACS to enrich for GFP positive population. For the in-vitro experiments, human cancer cell lines which constitutively expressed GFP were treated with various cytotoxic and targeted drugs (see Table 1 hereinbelow); and the effect of different secreted factors (Table 2 hereinbelow) on the innate resistance to a drug based on the cells' GFP level was determined.
High throughput in-vitro screens—For high-throughput screens or drug dose curves, cells were counted by Vi-Cell XR (Beckman coulter). Cells were seeded on 384 wells plates (Corning, 3712) using the EL406 washer dispenser (BioTek). Liquid handling of medium and drugs was effected by CyBi (WellFlex vario, CyBio). GFP fluorescence of cells was measured at 477/517 nm (excitation/emission) using Cytation3 (BioTek). Due to fluorescence reading bias at plate margins and corners, these margins were discarded for analysis.
High-throughput secretome screens—To screen for the effect of secreted factors on the response of cell lines to different drugs, the following seven-days procedure was performed. On day 0, GFP expressing cells were seeded at 1500-2000 cells per well on 384-wells plates (Corning, 3712), depending on the cell line's proliferation rate. Each plate was seeded with one cell line. At day 1, each plate was treated with the secretome library (Table 2 hereinabove), one well per factor. Immediately afterwards, each plate was treated either with a drug (Table 1 hereinabove) at the EC90 concentration or with DMSO control. The CyBi liquid handler was used to treat each plate with a drug and the secretome library as well as to replace the medium, drug and secreted factors following 3 days of incubation (day 4). Cell fluorescence was read at days 1, 4 and 7 by Cytation3, and for some of the experiments at day 6 as well. Wells of interest were imaged at day 7 using the Operetta (PerkinElmer).
(2) Based on observations, the plate area spanning rows 4-13 and columns 4-21 was hardly affected by plate margins biases. This area is referred to herein as plate core. To control for row specific and column specific biases, plate outliers (Zscore>4 or Zscore<−4) and edges were masked. Next, to capture row and column (col) biases for the i-th row and the j-th column, the bias factor was calculated:
Upon QC completion, 199 experiment plates and 79 control (DMSO) plates were left for further analysis. • 4—Scoring methods-A GFP value for wells without secretome factors was obtained by averaging over the plate internal control wells. Those wells contained the solvents used in the secretome library. pScore: The effect of the secreted factors on proliferation under DMSO was evaluated using pScore (proliferation score). Values were given in percent units.
rScore: The effect of the secreted factors on resistance to anti-cancer drugs was evaluated using rScore (rescue score). rScore was assigned to a given factor under two conditions: • 1. drug effect was >30% (residual drug growth<0.7) • 2. proliferation ratio between factor treated and untreated cells in the presence of drug was higher than one:
rSscore=S−S*residual drug growth
Based on manual inspection of the rScore distribution across the data, the threshold for a potential effect on drug resistance was set to 0.2 (FIGS. 8A-D).
(*) Negative values were considered as zero. […] Groups with less than 4 experiments were discarded, finally resulting in 13 groups of experiments (FIG. 1E). […]

pERK in G361 cell line = assay: In-cell western blot of pERK; settings: G361 cells treated with the BRAF inhibitor (vemurafenib 2 μM and trametinib 1 nM)
Protocol: PLX4720—BRAFi, 2 μM; PD184352—MEKi, 1 μM, EMAPII—50 ng/ml. P-value of the difference between GFP(drug)/GFP(no-treatment) and GFP(drug+EMAPII)/GFP(no-treatment), at day 7, was calculated by two-sided t-test. ** p<0.01, *** p<0.001. Average rScore (+/−SE) was calculated from at least four different experiments. […] A total of 69 experiments are shown. […] The effect of FGF2 (10 ng/ml), EMAPII (10 ng/ml) or AIMP1 (10 ng/ml) on G361 μmelanoma cells treated with vemurafenib (2 μM) was measured with or without the FGFR inhibitor PD17307 (0.5 μM). Data represent an average of 4 to 8 experiments. P-value was calculated by two-sided t-test. *** p<0.001. Error bars represent standard error. […] P-values were calculated by two-sided t-test relative to luciferase. * p<0.05, Q-value=0.1. […] P-value was calculated by two-sided t-test. *** p<0.001.
In-cell western blot—To validate that EMAPII mediates its effect on resistance to BRAF inhibition via the FGF receptors (FIG. 2G), the melanoma BRAF mutated cell line G361 was seeded in a 384-wells plate at a concentration of 16,000 cells per well. […] Finally, the plate was scanned with Odyssey (Li-cor) using microplate settings (169 μm, […]), and fluorescence intensity was quantified and normalized to the DRAQ level, and then to no drug control (DMSO).

## CN(C)C/C=C/C(=O)Nc1cc2c(Nc3ccc(F)c(Cl)c3)ncnc2cc1O[C@H]1CCOC1 [afatinib]
H1975 xenografts
  decrease of viability of cancer cells, on average: 28%

## CS(=O)(=O)CCNCc1ccc(-c2ccc3ncnc(Nc4ccc(OCc5cccc(F)c5)c(Cl)c4)c3c2)o1 [lapatinib]
[1]
  downstream pERK signaling: completely blocked pERK signaling

B1: EMAPII: endothelial-monocyte activating polypeptide II, C-terminus variant of AIMP1 (protein, UniProt Q12904 147-312, looked up)
Endothelial …: SKPIDVSRLDLRIGCIITARKHPDADSLYVEEVDVGEIAPRTVVSGLVNHVPLEQMQNRMVILLCNLKPAKMRGVLSQAMVMCASSPEKIEILAPPNGSVPGDRITFDAFPGEPDKELNPKKKIWEQIQPDLHTNDECVATYKGVPFEVKGKGVCRAQTMSNSGIK
modifications: Endothelial monocyte-activating polypeptide 2
[2]
  effect on sensitivity to BRAF/MEK inhibition: conferred resistance to BRAF and MEK inhibition
pERK in G361 cell line
  pERK reactivation: partially reactivate pERK
